Experimental data from PubChem BioAssay AID330 (DTP/NCI, 2004).
Where “and” joins values, the source holds several entries; their conditions need not be identical. Equal values may be shown once. Toxic doses and inconclusive results are not listed. The calls were made as follows: active = survival T/C of 150% or more; inactive = T/C below 125% in these data.

System: P388 leukemia ip, CD2F1 mice, survival T/C
Test: NCI In Vivo Anticancer Drug Screen. Data for tumor model P388 Leukemia (intraperitoneal) in CD2F1 (CDF1) mice
Settings: endpoint: median survival time, higher = longer survival
Summary of the method: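 Mice carrying the transplanted tumor received test compound or vehicle. Survival was recorded in each group, and the value is the treated-group measurement divided by that of the vehicle-treated control group.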

Measured: T/C

CC[C@@]1(O)C[C@H](OC2CC(N(C)C)C(OC3CC(O)C(OC4CCC(=O)C(C)O4)C(C)O3)C(C)O2)c2c(cc3c(c2O)C(=O)c2c(O)cccc2C3=O)[C@H]1C(=O)OC (stereo not given in full)
inactive: dose: 0.5 mg/kg/injection, schedule: Q03HX008 (ip), vehicle: saline 120 % of control | dose: 1.0 mg/kg/injection, schedule: Q01DX005 (iv), vehicle: saline 108 % of control | dose: 1.0 mg/kg/injection, schedule: Q01DX009 (oral), vehicle: saline 98 % of control | dose: 1.0 mg/kg/injection, schedule: Q01DX009 (sc), vehicle: saline 115 % of control | dose: 1.0 mg/kg/injection, schedule: Q04DX003 (ip), vehicle: saline 103 % of control | dose: 1.94 mg/kg/injection, schedule: Q04DX003 (ip), vehicle: clinical formulation 96 % of control | dose: 2.0 mg/kg/injection, schedule: Q01DX001 (iv), vehicle: saline 105 % of control | dose: 2.0 mg/kg/injection, schedule: Q01DX005 (iv), vehicle: saline 120 % of control | dose: 2.0 mg/kg/injection, schedule: Q01DX009 (oral), vehicle: saline 115 % of control | dose: 2.0 mg/kg/injection, schedule: Q04DX003 (ip), vehicle: clinical formulation 117 % of control | dose: 2.0 mg/kg/injection, schedule: Q04DX003 (ip), vehicle: saline 116 % of control and 120 % of control | dose: 2.59 mg/kg/injection, schedule: Q04DX002 (ip), vehicle: saline 114 % of control | dose: 4.0 mg/kg/injection, schedule: Q01DX001 (iv), vehicle: saline 116 % of control | dose: 4.0 mg/kg/injection, schedule: Q01DX009 (ip), vehicle: saline 99 % of control | dose: 4.0 mg/kg/injection, schedule: Q04DX003 (ip), vehicle: Klucel (hydroxypropylcellulose) (HPC) 122 % of control | dose: 5.4 mg/kg/injection, schedule: Q04DX003 (ip), vehicle: clinical formulation 113 % of control | dose: 8.0 mg/kg/injection, schedule: Q01DX001 (oral), vehicle: saline 110 % of control | dose: 8.0 mg/kg/injection, schedule: Q01DX009 (sc), vehicle: saline 95 % of control | dose: 9.0 mg/kg/injection, schedule: Q04DX003 (ip), vehicle: clinical formulation 114 % of control | dose: 15.0 mg/kg/injection, schedule: Q04DX003 (ip), vehicle: saline 95 % of control | dose: 16.0 mg/kg/injection, schedule: Q01DX001 (oral), vehicle: saline 116 % of control | dose: 16.0 mg/kg/injection, schedule: Q04DX003 (ip), vehicle: saline 117 % of control
active: dose: 1.0 mg/kg/injection, schedule: Q03HX024 (ip), vehicle: saline 167 % of control | dose: 2.0 mg/kg/injection, schedule: Q01DX005 (ip), vehicle: saline 167 % of control | dose: 2.0 mg/kg/injection, schedule: Q01DX009 (ip), vehicle: saline 168 % of control | dose: 2.5 mg/kg/injection, schedule: Q01DX009 (ip), vehicle: saline 180 % of control | dose: 4.0 mg/kg/injection, schedule: Q01DX005 (ip), vehicle: saline 189 % of control | dose: 4.0 mg/kg/injection, schedule: Q01DX005 (iv), vehicle: saline 162 % of control | dose: 4.0 mg/kg/injection, schedule: Q01DX009 (sc), vehicle: saline 153 % of control | dose: 4.0 mg/kg/injection, schedule: Q03HX008 (ip), vehicle: saline 173 % of control | dose: 4.32 mg/kg/injection, schedule: Q04DX002 (ip), vehicle: saline 151 % of control | dose: 5.4 mg/kg/injection, schedule: Q04DX003 (ip), vehicle: saline 159 % of control | dose: 6.7 mg/kg/injection, schedule: Q04DX003 (ip), vehicle: water 154 % of control | dose: 7.2 mg/kg/injection, schedule: Q04DX002 (ip), vehicle: saline 161 % of control | dose: 7.2 mg/kg/injection, schedule: Q04DX003 (ip), vehicle: saline 175 % of control | dose: 8.0 mg/kg/injection, schedule: Q01DX009 (oral), vehicle: saline 153 % of control | dose: 8.0 mg/kg/injection, schedule: Q04DX003 (ip), vehicle: clinical formulation 183 % of control | dose: 8.0 mg/kg/injection, schedule: Q04DX003 (ip), vehicle: saline 172 % of control and 176 % of control | dose: 9.0 mg/kg/injection, schedule: Q04DX003 (ip), vehicle: saline 198 % of control | dose: 10.0 mg/kg/injection, schedule: Q04DX003 (ip), vehicle: water 170 % of control | dose: 12.0 mg/kg/injection, schedule: Q04DX002 (ip), vehicle: saline 166 % of control | dose: 15.0 mg/kg/injection, schedule: Q04DX003 (ip), vehicle: water 187 % of control | dose: 16.0 mg/kg/injection, schedule: Q01DX001 (ip), vehicle: saline 153 % of control | dose: 16.0 mg/kg/injection, schedule: Q04DX003 (ip), vehicle: Klucel (hydroxypropylcellulose) (HPC) 154 % of control | dose: 32.0 mg/kg/injection, schedule: Q01DX001 (ip), vehicle: saline 180 % of control | dose: 32.0 mg/kg/injection, schedule: Q01DX001 (iv), vehicle: saline 159 % of control

C/C=C1/CN2C3C[C@H]1C(CO)(C(=O)OC)[C@H]2Cc1c3n(C)c2ccccc12 (stereo not given in full)
inactive: dose: 10.0 mg/kg/injection, schedule: Q01DX009 (ip), vehicle: Klucel (hydroxypropylcellulose) (HPC) 100 % of control | dose: 20.0 mg/kg/injection, schedule: Q01DX009 (ip), vehicle: Klucel (hydroxypropylcellulose) (HPC) 101 % of control | dose: 40.0 mg/kg/injection, schedule: Q01DX009 (ip), vehicle: Klucel (hydroxypropylcellulose) (HPC) 104 % of control | dose: 80.0 mg/kg/injection, schedule: Q01DX009 (ip), vehicle: Klucel (hydroxypropylcellulose) (HPC) 100 % of control | dose: 160.0 mg/kg/injection, schedule: Q01DX009 (ip), vehicle: Klucel (hydroxypropylcellulose) (HPC) 94 % of control

CC(=O)c1cc(I)c(O)c2ncccc12
inactive: dose: 6.25 mg/kg/injection, schedule: Q01DX009 (ip), vehicle: saline with Tween-80 97 % of control | dose: 12.5 mg/kg/injection, schedule: Q01DX009 (ip), vehicle: saline with Tween-80 94 % of control | dose: 25.0 mg/kg/injection, schedule: Q01DX009 (ip), vehicle: saline with Tween-80 98 % of control

CCOC(=N)c1ccc(C(=N)OCC)cc1
inactive: dose: 60.0 mg/kg/injection, schedule: Q01DX005 (ip), vehicle: saline 97 % of control | dose: 120.0 mg/kg/injection, schedule: Q01DX005 (ip), vehicle: saline 100 % of control | dose: 240.0 mg/kg/injection, schedule: Q01DX005 (ip), vehicle: saline 104 % of control

O=C(CCCN1CCC(O)(c2cccc(C(F)(F)F)c2)CC1)c1ccc(F)cc1
inactive: dose: 18.75 mg/kg/injection, schedule: Q04DX003 (ip), vehicle: Klucel (hydroxypropylcellulose) (HPC) 108 % of control | dose: 37.5 mg/kg/injection, schedule: Q04DX003 (ip), vehicle: Klucel (hydroxypropylcellulose) (HPC) 112 % of control | dose: 75.0 mg/kg/injection, schedule: Q04DX003 (ip), vehicle: Klucel (hydroxypropylcellulose) (HPC) 88 % of control

CC(C)(C#N)NCCCCCCNC(C)(C)C#N
inactive: dose: 50.0 mg/kg/injection, schedule: Q01DX005 (ip), vehicle: Klucel (hydroxypropylcellulose) (HPC) 96 % of control | dose: 100.0 mg/kg/injection, schedule: Q01DX005 (ip), vehicle: Klucel (hydroxypropylcellulose) (HPC) 93 % of control | dose: 200.0 mg/kg/injection, schedule: Q01DX005 (ip), vehicle: Klucel (hydroxypropylcellulose) (HPC) 100 % of control

COc1ccccc1N/N=c1\c2nc3ccccc3nc1n(-c1ccccc1C)c(=S)n2-c1ccc(Cl)cc1
inactive: dose: 50.0 mg/kg/injection, schedule: Q01DX005 (ip), vehicle: saline with Tween-80 88 % of control | dose: 100.0 mg/kg/injection, schedule: Q01DX005 (ip), vehicle: saline with Tween-80 94 % of control | dose: 200.0 mg/kg/injection, schedule: Q01DX005 (ip), vehicle: saline with Tween-80 103 % of control

Cc1ccc([N+](=O)[O-])cc1NC(=O)Oc1ccccc1
inactive: dose: 100.0 mg/kg/injection, schedule: Q01DX009 (ip), vehicle: other 90 % of control | dose: 200.0 mg/kg/injection, schedule: Q01DX009 (ip), vehicle: other 110 % of control | dose: 400.0 mg/kg/injection, schedule: Q01DX009 (ip), vehicle: other 100 % of control

CC1(Cc2c[nH]c(=O)[nH]c2=O)C(=O)NC(=O)NC1=O
inactive: dose: 50.0 mg/kg/injection, schedule: Q01DX009 (ip), vehicle: Klucel (hydroxypropylcellulose) (HPC) 105 % of control | dose: 100.0 mg/kg/injection, schedule: Q01DX009 (ip), vehicle: Klucel (hydroxypropylcellulose) (HPC) 100 % of control | dose: 200.0 mg/kg/injection, schedule: Q01DX009 (ip), vehicle: Klucel (hydroxypropylcellulose) (HPC) 98 % of control

CC(=O)N(C(C)=O)/C(=C/c1cn(C(C)=O)c2ccccc12)C(=O)c1ccc(C)cc1
inactive: dose: 100.0 mg/kg/injection, schedule: Q01DX001 (ip), vehicle: saline with Tween-80 105 % of control | dose: 200.0 mg/kg/injection, schedule: Q01DX001 (ip), vehicle: saline with Tween-80 104 % of control | dose: 400.0 mg/kg/injection, schedule: Q01DX001 (ip), vehicle: saline with Tween-80 98 % of control
